In ChEMBL document CHEMBL3045258, “Benzimidazole, Benzoxazole and Benzothiazole Derivatives as 5HT2B Receptor Ligands. Synthesis and Preliminary Pharmacological Evaluation” (Med Chem Res, 2005):
Activity calls are given as the source filed them. No cut-off for these calls is given here.

Tests used:
[1] = target: 5-hydroxytryptamine receptor 2B (Rattus norvegicus) (UniProt P30994); experiment: Non-surmountable antagonist activity at 5-HT2B in Rattus norvegicus CD (rat) stomach fundus sections assessed as inhibition of serotonin-induced contractile response after 1 hr
Chain of 5-hydroxytryptamine receptor 2B (Rattus norvegicus) (P30994 whole entry): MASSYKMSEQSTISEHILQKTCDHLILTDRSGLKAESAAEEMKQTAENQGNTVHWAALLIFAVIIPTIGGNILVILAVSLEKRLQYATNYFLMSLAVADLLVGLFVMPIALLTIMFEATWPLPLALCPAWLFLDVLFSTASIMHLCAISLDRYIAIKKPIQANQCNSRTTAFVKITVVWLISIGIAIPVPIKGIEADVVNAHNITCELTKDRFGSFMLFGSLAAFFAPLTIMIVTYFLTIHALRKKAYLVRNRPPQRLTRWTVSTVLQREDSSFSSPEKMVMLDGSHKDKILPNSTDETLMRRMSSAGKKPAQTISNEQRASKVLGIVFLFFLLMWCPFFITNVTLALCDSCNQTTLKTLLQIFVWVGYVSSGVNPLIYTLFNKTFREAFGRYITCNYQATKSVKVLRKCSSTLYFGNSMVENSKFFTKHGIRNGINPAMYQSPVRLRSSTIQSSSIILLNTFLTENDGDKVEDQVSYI

[2] = target: T1, 5-hydroxytryptamine receptor 2C (Rattus norvegicus) (UniProt P08909); experiment: Displacement of [3H]mesulergine from 5-HT2C in Rattus norvegicus CD (rat) […] sections at 10 uM after 1 hr
T1 sequence (whole entry): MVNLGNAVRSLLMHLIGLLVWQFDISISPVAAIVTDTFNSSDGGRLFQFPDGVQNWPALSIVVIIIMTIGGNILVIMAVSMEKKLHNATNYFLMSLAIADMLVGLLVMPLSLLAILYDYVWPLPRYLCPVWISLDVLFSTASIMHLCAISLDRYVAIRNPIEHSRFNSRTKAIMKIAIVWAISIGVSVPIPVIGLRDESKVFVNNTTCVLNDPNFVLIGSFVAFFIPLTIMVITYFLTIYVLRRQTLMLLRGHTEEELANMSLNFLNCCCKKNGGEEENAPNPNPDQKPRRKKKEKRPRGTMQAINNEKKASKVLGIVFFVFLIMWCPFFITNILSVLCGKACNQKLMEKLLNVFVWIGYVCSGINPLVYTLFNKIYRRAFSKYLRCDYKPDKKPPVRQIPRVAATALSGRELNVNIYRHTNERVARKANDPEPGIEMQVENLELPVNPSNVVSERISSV

[3] = target: 5-hydroxytryptamine receptor 2A (Rattus norvegicus) (UniProt P14842); experiment: Displacement of [3H]ketansarin from 5-HT2A in Rattus norvegicus CD (rat) […] sections at 10 uM after 1 hr
Chain of 5-hydroxytryptamine receptor 2A (Rattus norvegicus) (P14842 whole entry): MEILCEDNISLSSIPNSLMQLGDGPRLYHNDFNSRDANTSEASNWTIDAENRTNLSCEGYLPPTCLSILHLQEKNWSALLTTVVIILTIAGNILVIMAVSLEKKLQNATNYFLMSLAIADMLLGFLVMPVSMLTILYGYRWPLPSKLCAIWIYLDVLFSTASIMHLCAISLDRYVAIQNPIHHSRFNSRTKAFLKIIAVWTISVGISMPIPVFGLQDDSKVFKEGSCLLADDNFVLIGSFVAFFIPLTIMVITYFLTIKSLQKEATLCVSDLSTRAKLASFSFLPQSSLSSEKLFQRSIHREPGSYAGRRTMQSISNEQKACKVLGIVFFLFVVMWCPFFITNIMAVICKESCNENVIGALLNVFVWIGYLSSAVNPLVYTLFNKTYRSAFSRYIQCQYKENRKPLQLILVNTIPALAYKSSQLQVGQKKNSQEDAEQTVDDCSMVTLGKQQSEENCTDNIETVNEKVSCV

[4] = target: 5-hydroxytryptamine receptor 2B (Rattus norvegicus) (UniProt P30994); experiment: Binding affinity to 5-HT2B in Rattus norvegicus CD (rat) stomach fundus sections after 1 hr
[5] = target: 5-hydroxytryptamine receptor 2B (Rattus norvegicus) (UniProt P30994); experiment: Antagonist activity at 5-HT2B in Rattus norvegicus CD (rat) stomach fundus sections assessed as inhibition of serotonin-induced contractile response at 10 '-5 M after 1 hr

| Compound | inhibition [1] | Activity [2] [%] | Activity [3] [%] | pKb [4] | inhibition [5] |
| --- | --- | --- | --- | --- | --- |
| COc1ccc(CC(O)c2nc3ccccc3s2)cc1OC (configuration not stated) | inactive | < 5 | < 5 | 5.16 | – |
| CCNCc1nc2ccccc2[nH]1 | inactive | < 5 | < 5 | < 5 | inactive |
| O=C(Cc1ccccc1)c1cc2ccccc2[nH]1 | inactive | < 5 | < 5 | 5.58 | – |
| COc1ccc(CC2NCCc3c2[nH]c2ccccc32)cc1OC (configuration not stated) | – | – | – | 9.17 | – |
| COc1ccc(CCc2nc3ccccc3o2)cc1OC | inactive | < 5 | < 5 | 5.59 | – |
| COc1ccc(CCc2nc3ccccc3s2)cc1OC | inactive | < 5 | < 5 | 5.61 | – |
| OC(Cc1ccccc1)c1nc2ccccc2[nH]1 (configuration not stated) | inactive | < 5 | < 5 | 5.16 | – |
| O/N=C(\Cc1ccccc1)c1cc2ccccc2[nH]1 | inactive | < 5 | < 5 | < 5 | – |
| c1ccc(CCc2nc3ccccc3o2)cc1 | inactive | < 5 | < 5 | 5.23 | – |
| OC(Cc1ccccc1)c1nc2ccccc2s1 (configuration not stated) | inactive | < 5 | < 5 | 5.25 | – |
| NC(Cc1ccccc1)c1cc2ccccc2[nH]1 (configuration not stated) | inactive | < 5 | < 5 | < 5 | – |
| COc1ccc(CC(O)c2nc3ccccc3[nH]2)cc1OC (configuration not stated) | inactive | < 5 | < 5 | < 5 | inactive |
| NC(Cc1ccccc1)c1nc2ccccc2[nH]1 (configuration not stated) | inactive | < 5 | < 5 | < 5 | inactive |
| NCc1nc2ccccc2[nH]1 | inactive | < 5 | < 5 | < 5 | inactive |
| OC(Cc1ccccc1)c1cc2ccccc2[nH]1 (configuration not stated) | inactive | < 5 | < 5 | < 5 | – |
| OC(Cc1ccccc1)c1nc2ccccc2o1 (configuration not stated) | inactive | < 5 | < 5 | < 5 | inactive |
| NC(Cc1ccccc1)c1nc2ccccc2s1 (configuration not stated) | inactive | < 5 | < 5 | < 5 | inactive |
| c1ccc(CCc2nc3ccccc3[nH]2)cc1 | inactive | < 5 | < 5 | 5.29 | – |
| c1ccc(CCc2nc3ccccc3s2)cc1 | inactive | < 5 | < 5 | 5.15 | – |
| COc1ccc(CC(O)c2nc3ccccc3o2)cc1OC (configuration not stated) | inactive | < 5 | < 5 | 5.1 | – |
| COc1ccc(CCc2nc3ccccc3[nH]2)cc1OC | inactive | < 5 | < 5 | 5.84 | – |
| COC(=O)[C@@H]1[C@H]2C[C@H]3c4[nH]c5ccccc5c4CCN3C[C@@H]2CC[C@@H]1O | – | – | – | 7.74 | – |
| CCNC(Cc1ccccc1)c1nc2ccccc2[nH]1 (configuration not stated) | inactive | < 5 | < 5 | 5.84 | – |
